How the values were obtained:
Botrytis cinerea [1] = assay: growth of Botrytis cinerea on potato dextrose agar plate medium; type: cell-based; details: after 4 days culture at 25 °C
Procedure: Botrytis cinerea lesion with a diameter of 5 mm was inoculated on the center of a potato dextrose agar medium plate. The experiment was performed by seven groups as follows: • a. A BLANK group: nothing was added; • b. A GSH group: 1 g reductive glutathione was added to a lid of a Petri dish and the Petri dish was sealed immediately; • c. A GSH3h group: 1 g reductive glutathione was added to a lid of a Petri dish and then the Petri dish was sealed after being left open for 3 h at room temperature; • d. A Group […]: 20 μL trans-2-hexenal was added to a lid of a Petri dish and the Petri dish was sealed immediately; • e. An E-2-[…] group: 20 μL trans-2-hexenal was added to a lid of a Petri dish and the Petri dish was sealed after being left open for 3 h at room temperature; • f. […] After all groups were sealed completely, the groups were inverted and cultured at 25° C.The growth of Botrytis cinerea was checked regularly.

[2] = 0.05 g product, sealed vial 7 d; 4, 25, 45 °C; relative humidity 0%, 30%, 50%, 70%, 85%, 100%
Procedure: 20 mL glass vials were filled with 3 g of silica gel, 3 mL of saturated magnesium chloride solution, 3 mL of saturated potassium carbonate solution, 3 mL of saturated potassium iodide solution, 3 mL of saturated of potassium chloride solution, and 3 mL of pure water and then sealed until reaching relative humidity of 0%, 30%, 50%, 70%, 85% and 100%, respectively, and the mixed solution was balanced at 4° C. for 1 h. 0.05 g product was weighed and placed in a 2 mL glass vial, then transferred to the 20 mL glass vial and sealed for 7 d, and the release amount was measured every day.
20 mL glass vials were filled with 3 g of silica gel, 3 mL of saturated magnesium chloride solution, 3 mL of saturated potassium carbonate solution, 3 mL of saturated potassium iodide solution, 3 mL of saturated potassium chloride solution, and 3 mL of pure water until reaching relative humidity of 0%, 30%, 50%, 70%, 85% and 100%, respectively, and the mixed solution was balanced at 25° C. for 1 h. 0.05 g product was weighed in a 2 mL glass vial, then transferred to the 20 mL glass vial and sealed for 7 d, and the release amount was measured every day. […]

Botrytis cinerea [3] = details: strawberries injected with 4 µL of 5×10^5 cfu/mL Botrytis cinerea; 6 g product at bottom of fresh-keeping box; room temperature
Procedure: Strawberries which were harvested at the same maturity, similar in size and without any infestation with insects or pets and damage, were selected. The strawberries were surface-sterilized by immersing in 0.5% (v/v) sodium hypochlorite for 5 min, then washed with sterile water to remove residues and dried at room temperature. The strawberries were randomly divided into 2 groups, each group including 33 strawberries, and then packed into a certain volume of fresh-keeping boxes (11 strawberries per box). In group a, 4 µL of 5×10^5cfu/mL of Botrytis cinerea solution was injected into the equatorial part of the strawberry. […] The experiment was conducted at room temperature and the strawberries were observed daily for decay, and the diameter of the lesions was measured daily.

[4] = Petri dish sealed after being left open for 3 h at room temperature
[5] = Petri dish sealed immediately after addition

With `CCCC(CC=O)SC[C@H](NC(=O)CC[C@H](N)C(=O)O)C(=O)NCC(=O)O` (stereo partly shown) the “difference in bacterial inhibition results between group sealed immediately and group sealed after being left open for 3 h” value (Botrytis cinerea [1]; 1 g product) was “little difference”, the “lesion diameter of Botrytis cinerea on plate medium” value (shortened to “lesion diameter of Botrytis cinerea”) (Botrytis cinerea [1]; [4]) was “significantly smaller than that of the blank group” and the “lesion diameter of Botrytis cinerea” value (Botrytis cinerea [1]; [5]) was “significantly smaller than that of the blank group”. For the same compound, the “release rate of trans-2-hexenal from the products” value [2] was “increased with the increase in relative humidity and temperature”, the “bacterial inhibition (incidence of fruit gray mold)” value (Botrytis cinerea [3]) was “better than the control group” and the “growth diameters of the lesion of fruit” value (Botrytis cinerea [3]) was “lower than that of the control group”.

With `N[C@@H](CCC(=O)N[C@@H](CS)C(=O)NCC(=O)O)C(=O)O` [reductive glutathione] the “lesion diameter of Botrytis cinerea” value (Botrytis cinerea [1]; [4]) was “not significantly different from the blank group” and the “lesion diameter of Botrytis cinerea” value (Botrytis cinerea [1]; [5]) was “not significantly different from the blank group”.

With `CCC/C=C/C=O` [trans-2-hexenal] the “lesion diameter of Botrytis cinerea” value (Botrytis cinerea [1]; [4]) was “larger than that of the glutathione/trans-2-hexenal addition product group” and the “lesion diameter of Botrytis cinerea” value (Botrytis cinerea [1]; [5]) was “significantly lower lesion diameter than other groups”.

Source: patent US20230309555A1, “ENVIRONMENTALLY RESPONSIVE TRANS-2-HEXENAL SUSTAINED-RELEASE AGENT, PREPARATION METHOD, AND APPLICATION” (ZHEJIANG UNIVERSITY, priority 2022, published 2023)
